ChEMBL document CHEMBL6078666, “Discovery of Novel Coumarin Pleuromutilin Derivatives as Potent Anti-MRSA Agents” (J Med Chem, 2024)
Converted amounts (≈) assume the structure as drawn. The source made the active and inactive calls. The rule behind the calls is not given here.

Key:
Staphylococcus aureus [1] = experiment: Antibacterial activity against methicillin-resistant Staphylococcus aureus ATCC 33591 assessed as bacterial growth inhibition measured after 20 hrs by broth dilution method; assay type: functional
Staphylococcus aureus [2] = experiment: Antibacterial activity against methicillin-resistant Staphylococcus aureus ATCC 43300 assessed as bacterial growth inhibition measured after 20 hrs by broth dilution method; assay type: functional
[3] = test system: Staphylococcus epidermidis; experiment: Antibacterial activity against Staphylococcus epidermidis ATCC 51625 assessed as bacterial growth inhibition measured after 20 hrs by broth dilution method; assay type: functional
Enterococcus faecium [4] = experiment: Antibacterial activity against vancomycin-resistant Enterococcus faecium ATCC 51559 assessed as bacterial growth inhibition measured after 20 hrs by broth dilution method; assay type: functional
Enterococcus faecium [5] = experiment: Antibacterial activity against vancomycin-resistant Enterococcus faecium ATCC 700221 assessed as bacterial growth inhibition measured after 20 hrs by broth dilution method; assay type: functional
Streptococcus pneumoniae [6] = experiment: Antibacterial activity against penicillin-resistant Streptococcus pneumoniae ATCC 51916 assessed as bacterial growth inhibition measured after 20 hrs by broth dilution method; assay type: functional
Streptococcus pneumoniae [7] = experiment: Antibacterial activity against penicillin-intermediate Streptococcus pneumoniae ATCC 49619 assessed as bacterial growth inhibition measured after 20 hrs by broth dilution method; assay type: functional
Staphylococcus aureus [8] = experiment: Ratio of MBC to MIC against methicillin-resistant Staphylococcus aureus ATCC 33591; assay type: functional
Staphylococcus aureus [9] = experiment: Ratio of MBC to MIC against Staphylococcus aureus ATCC 43300; assay type: functional
[10] = test system: Staphylococcus epidermidis; experiment: Ratio of MBC to MIC against Staphylococcus epidermidis ATCC 51625; assay type: functional
Enterococcus faecium [11] = experiment: Ratio of MBC to MIC against vancomycin-resistant Enterococcus faecium ATCC 51559; assay type: functional
Enterococcus faecium [12] = experiment: Ratio of MBC to MIC against vancomycin-resistant Enterococcus faecium ATCC 700221; assay type: functional
Streptococcus pneumoniae [13] = experiment: Ratio of MBC to MIC against penicillin-intermediate Streptococcus pneumoniae ATCC 49619; assay type: functional
Staphylococcus aureus [14] = experiment: Antibacterial activity against methicillin-resistant Staphylococcus aureus clinical isolate 202311772 assessed as bacterial growth inhibition measured after 20 hrs by broth dilution method; assay type: functional
Staphylococcus aureus [15] = experiment: Antibacterial activity against methicillin-resistant Staphylococcus aureus clinical isolate 202313160 assessed as bacterial growth inhibition measured after 20 hrs by broth dilution method; assay type: functional
Staphylococcus aureus [16] = experiment: Antibacterial activity against methicillin-resistant Staphylococcus aureus clinical isolate 202405157 assessed as bacterial growth inhibition measured after 20 hrs by broth dilution method; assay type: functional
[17] = test system: Staphylococcus epidermidis; experiment: Antibacterial activity against methicillin-resistant Staphylococcus epidermidis clinical isolate 202409454 assessed as bacterial growth inhibition measured after 20 hrs by broth dilution method; assay type: functional
[18] = test system: Staphylococcus epidermidis; experiment: Antibacterial activity against methicillin-resistant Staphylococcus epidermidis clinical isolate 202409139 assessed as bacterial growth inhibition measured after 20 hrs by broth dilution method; assay type: functional
Enterococcus faecium [19] = experiment: Antibacterial activity against vancomycin-resistant Enterococcus faecium clinical isolate 202308456 assessed as bacterial growth inhibition measured after 20 hrs by broth dilution method; assay type: functional
Staphylococcus aureus [20] = experiment: Ratio of MBC to MIC against methicillin-resistant Staphylococcus aureus clinical isolate 202311772; assay type: functional
Staphylococcus aureus [21] = experiment: Ratio of MBC to MIC against methicillin-resistant Staphylococcus aureus clinical isolate 202405157; assay type: functional
[22] = test system: Staphylococcus epidermidis; experiment: Ratio of MBC to MIC against methicillin-resistant Staphylococcus epidermidis clinical isolate 202409454; assay type: functional
[23] = test system: Staphylococcus epidermidis; experiment: Ratio of MBC to MIC against methicillin-resistant Staphylococcus epidermidis clinical isolate 202409139; assay type: functional
Enterococcus faecium [24] = experiment: Ratio of MBC to MIC against vancomycin-resistant Enterococcus faecium clinical isolate 202308456; assay type: functional
Staphylococcus aureus [25] = experiment: Bactericidal activity against methicillin-resistant Staphylococcus aureus ATCC 33591 at 4 to 8 times MIC measured within 24 hrs by time kill assay; assay type: functional, organism-based
Staphylococcus aureus [26] = experiment: Drug resistance, ratio of MIC for Staphylococcus aureus ATCC 33591 after 8 days to MIC for methicillin-resistant Staphylococcus aureus ATCC 33591 after initial exposure; assay type: functional; conditions: time 8 day
Staphylococcus aureus [27] = experiment: Drug resistance, ratio of MIC for Staphylococcus aureus ATCC 33591 after 9 days to MIC for methicillin-resistant Staphylococcus aureus ATCC 33591 after initial exposure; assay type: functional; conditions: time 9 day
Staphylococcus aureus [28] = experiment: Antibacterial activity against methicillin resistant Staphylococcus aureus ATCC 33591 assessed as post antibiotic effect at 2 times MIC by time kill assay; assay type: functional
Staphylococcus aureus [29] = experiment: Antibacterial activity against methicillin resistant Staphylococcus aureus ATCC 33591 assessed as post antibiotic effect at 4 times MIC by time kill assay; assay type: functional
Staphylococcus aureus [30] = experiment: Antibacterial activity against Staphylococcus aureus ATCC 25923 assessed as reduction in GFP expression at 1 to 4 times MIC measured after 1 hr by fluorescence microscopy based analysis; assay type: functional, organism-based
Staphylococcus aureus [31] = experiment: Induction of morphological changes in methicillin-resistant Staphylococcus aureus ATCC 33591 assessed as changes in cell surface at 1 time MIC measured after 4 hrs by SEM analysis; assay type: functional, organism-based
Staphylococcus aureus [32] = experiment: Antibacterial activity against methicillin-resistant Staphylococcus aureus ATCC 33591 infected in female C57 mouse systemic infection model assessed as effective dose; assay type: functional
Staphylococcus aureus [33] = experiment: Antibacterial activity against methicillin-resistant Staphylococcus aureus ATCC 33591 infected in female C57 mouse systemic infection model assessed as reduction in bacterial load in lung at 40 mg/kg, iv administered twice daily and measured after 7 days; assay type: functional; conditions: time 7 day
Staphylococcus aureus [34] = experiment: Antibacterial activity against methicillin-resistant Staphylococcus aureus ATCC 33591 infected in female C57 mouse systemic infection model assessed as reduction in bacterial load in liver at 40 mg/kg, iv administered twice daily and measured after 7 days; assay type: functional; conditions: time 7 day
Staphylococcus aureus [35] = experiment: Antibacterial activity against methicillin-resistant Staphylococcus aureus ATCC 33591 infected in female C57 mouse systemic infection model assessed as reduction in bacterial load in kidney at 40 mg/kg, iv administered twice daily and measured after 7 days; assay type: functional; conditions: time 7 day
Staphylococcus aureus [36] = experiment: Antibacterial activity against methicillin-resistant Staphylococcus aureus ATCC 33591 infected in female C57 mouse systemic infection model assessed as reduction in bacterial load in spleen at 40 mg/kg, iv administered twice daily and measured after 7 days; assay type: functional; conditions: time 7 day
Staphylococcus aureus [37] = experiment: Antibacterial activity against methicillin-resistant Staphylococcus aureus ATCC 33591 infected in female C57 mouse systemic infection model assessed as reduction in bacterial load in heart at 40 mg/kg, iv administered twice daily and measured after 7 days; assay type: functional; conditions: time 7 day
Staphylococcus aureus [38] = experiment: Ratio of MBC to MIC against methicillin-resistant Staphylococcus aureus clinical isolate 202313160; assay type: functional

SMILES | MIC (Staphylococcus aureus [1]) [µg/mL] | MIC (Staphylococcus aureus [2]) [µg/mL] | MIC [3] [µg/mL] | MIC (Enterococcus faecium [4]) [µg/mL] | MIC (Enterococcus faecium [5]) [µg/mL] | MIC (Streptococcus pneumoniae [6]) [µg/mL] | MIC (Streptococcus pneumoniae [7]) [µg/mL] | Ratio (Staphylococcus aureus [9]) | Ratio [10] | Ratio (Enterococcus faecium [11]) | Ratio (Enterococcus faecium [12]) | Ratio (Streptococcus pneumoniae [13]) | MIC (Staphylococcus aureus [14]) [µg/mL] | MIC (Staphylococcus aureus [15]) [µg/mL] | MIC (Staphylococcus aureus [16]) [µg/mL] | MIC [17] [µg/mL] | MIC [18] [µg/mL] | MIC (Enterococcus faecium [19]) [µg/mL] | Ratio (Staphylococcus aureus [20]) | Ratio (Staphylococcus aureus [21]) | other results
C=C[C@]1(C)C[C@@H](OC(=O)CSc2cc(=O)oc3ccc(F)cc23)[C@]2(C)[C@H](C)CC[C@]3(CCC(=O)[C@H]32)[C@@H](C)[C@@H]1O | 0.031 (≈ 0.0557 µM) | 0.063 (≈ 0.113 µM) | 0.031 (≈ 0.0557 µM) | 0.063 (≈ 0.113 µM) | 0.031 (≈ 0.0557 µM) | 0.125 (≈ 0.225 µM) | 0.063 (≈ 0.113 µM) | 4 | 4 | 2 | 4 | >4 | 0.031 (≈ 0.0557 µM) | 0.063 (≈ 0.113 µM) | 0.063 (≈ 0.113 µM) | 0.125 (≈ 0.225 µM) | 0.063 (≈ 0.113 µM) | 0.031 (≈ 0.0557 µM) | >4 | >4 | Ratio (Staphylococcus aureus [8]): >4; Ratio [22]: >4; Ratio [23]: 2; Ratio (Enterococcus faecium [24]): >4
C=C[C@]1(C)C[C@@H](OC(=O)CSCCN(CC)CC)[C@]2(C)[C@H](C)CC[C@]3(CCC(=O)[C@H]32)[C@@H](C)[C@@H]1O [TIAMULIN] | 0.5 (≈ 1.01 µM) | 0.5 (≈ 1.01 µM) | 0.125 (≈ 0.253 µM) | 0.5 (≈ 1.01 µM) | 0.125 (≈ 0.253 µM) | 0.125 (≈ 0.253 µM) | 0.25 (≈ 0.506 µM) | >4 | >4 | 2 | >4 | >4 | 2 (≈ 4.05 µM) | 1 (≈ 2.03 µM) | 2 (≈ 4.05 µM) | 2 (≈ 4.05 µM) | 1 (≈ 2.03 µM) | 2 (≈ 4.05 µM) | 4 | 4 | Ratio (Staphylococcus aureus [8]): 4; Ratio (Enterococcus faecium [24]): 4; Activity (Staphylococcus aureus [25]): Active; fold change (FC) (Staphylococcus aureus [26]): 4; fold change (FC) (Staphylococcus aureus [27]): 64; PAE (Staphylococcus aureus [28]): 1.07 h; PAE (Staphylococcus aureus [29]): 1.19 h; Activity (Staphylococcus aureus [30]): Active; Activity (Staphylococcus aureus [31]): inactive; ED50 (Staphylococcus aureus [32]): 28.9 mg/kg; Activity (Staphylococcus aureus [33]): 1.23 log10CFU/g; Activity (Staphylococcus aureus [34]): 0.28 log10CFU/g; Activity (Staphylococcus aureus [35]): 1.39 log10CFU/g; Activity (Staphylococcus aureus [36]): 0.7 log10CFU/g; Activity (Staphylococcus aureus [37]): 2.05 log10CFU/g
C=C[C@]1(C)C[C@@H](OC(=O)CSc2cc(=O)oc3cc(Br)ccc23)[C@]2(C)[C@H](C)CC[C@]3(CCC(=O)[C@H]32)[C@@H](C)[C@@H]1O | 0.031 (≈ 0.0502 µM) | 0.063 (≈ 0.102 µM) | 0.031 (≈ 0.0502 µM) | 0.063 (≈ 0.102 µM) | 0.031 (≈ 0.0502 µM) | 0.125 (≈ 0.202 µM) | 0.063 (≈ 0.102 µM) | >4 | 4 | 1 | 2 | >4 | 0.031 (≈ 0.0502 µM) | 0.125 (≈ 0.202 µM) | 0.063 (≈ 0.102 µM) | 0.125 (≈ 0.202 µM) | 0.125 (≈ 0.202 µM) | 0.063 (≈ 0.102 µM) | 1 | 2 | Ratio (Staphylococcus aureus [38]): 4; Ratio [23]: >4; Ratio (Enterococcus faecium [24]): 2
